Assay results from ChEMBL document CHEMBL1144615, “Neuroprotective effects of kobophenol A against the withdrawal of tropic support, nitrosative stress, and mitochondrial damage in SH-SY5Y neuroblastoma cells” (2007).
Calls of active or inactive are those of the source. No cut-off for these calls is given here.

Columns and labels:
[1] = system: SH-SY5Y; assay: Reduction on paraquat-induced ROS production in SH-SY5Y cells; type: functional, Homo sapiens; design: scale not given: the % may be the effect or the level left
[2] = system: SH-SY5Y; assay: Effect on 3 mM sodium nitroprusside-induced mitochondrial transmembrane potential level in SH-SY5Y cells after 8 hrs; type: functional, Homo sapiens
[3] = system: SH-SY5Y; assay: Increase in cell viability of SH-SY5Y cells in serum starved conditions at 20 ug/mL after 48 hrs by MTT assay relative to control; type: functional, Homo sapiens
[4] = system: SH-SY5Y; assay: Inhibition of 3 mM sodium nitroprusside-induced cell death in SH-SY5Y cells assessed as increase in cell viability at 30 ug/mL after 24 hrs by MTT assay relative to control; type: functional, Homo sapiens
[5] = system: SH-SY5Y; assay: Effect on 2 mM paraquat-induced intracellular calcium level in SH-SY5Y cells after 8 hrs relative to control; type: functional, Homo sapiens
[6] = target: T1, Caspase-9 (Homo sapiens) (UniProt P55211); assay: Decrease in paraquat-induced caspase 9 activity in SH-SY5Y cells; type: cell-based
T1 sequence (whole entry): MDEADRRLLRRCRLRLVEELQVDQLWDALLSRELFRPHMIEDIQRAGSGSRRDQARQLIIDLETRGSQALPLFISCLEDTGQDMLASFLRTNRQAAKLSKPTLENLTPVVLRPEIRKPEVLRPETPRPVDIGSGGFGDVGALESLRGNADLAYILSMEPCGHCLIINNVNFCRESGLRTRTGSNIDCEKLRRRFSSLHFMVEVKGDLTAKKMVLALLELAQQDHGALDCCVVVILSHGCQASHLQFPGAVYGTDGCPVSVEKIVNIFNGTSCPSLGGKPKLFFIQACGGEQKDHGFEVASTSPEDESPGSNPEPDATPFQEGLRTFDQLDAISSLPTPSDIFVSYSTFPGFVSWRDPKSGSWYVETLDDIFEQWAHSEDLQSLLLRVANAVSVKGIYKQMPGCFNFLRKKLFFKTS

[7] = system: SH-SY5Y; assay: Increase in cell viability of SH-SY5Y cells in serum starved conditions at 10 ug/mL after 48 hrs by MTT assay relative to control; type: functional, Homo sapiens
[8] = target: T2, Caspase-3 (Homo sapiens) (UniProt P42574); assay: Decrease in sodium nitroprusside-induced caspase-3 activity in SH-SY5Y cells; type: cell-based
T2 sequence (whole entry): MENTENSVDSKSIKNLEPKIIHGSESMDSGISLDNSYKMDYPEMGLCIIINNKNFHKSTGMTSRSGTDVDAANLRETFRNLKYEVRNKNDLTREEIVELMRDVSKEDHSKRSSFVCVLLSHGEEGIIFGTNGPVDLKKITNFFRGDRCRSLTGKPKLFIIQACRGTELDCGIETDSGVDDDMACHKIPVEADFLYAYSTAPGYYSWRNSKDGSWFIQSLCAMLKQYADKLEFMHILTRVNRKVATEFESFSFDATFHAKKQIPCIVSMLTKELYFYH

[9] = system: SH-SY5Y; assay: Effect on sodium nitroprusside-induced intracellular calcium level in SH-SY5Y cells after 8 hrs relative to control; type: functional, Homo sapiens
[10] = system: SH-SY5Y; assay: Inhibition of 5 mM sodium nitroprusside-induced cell death in SH-SY5Y cells assessed as increase in cell viability at 30 ug/mL after 24 hrs by MTT assay relative to control; type: functional, Homo sapiens
[11] = system: SH-SY5Y; assay: Increase in cell viability of SH-SY5Y cells in serum starved conditions at 30 ug/mL after 48 hrs by MTT assay relative to control; type: functional, Homo sapiens
[12] = system: SH-SY5Y; assay: Inhibition of 1 mM sodium nitroprusside-induced cell death in SH-SY5Y cells assessed as increase in cell viability at 30 ug/mL after 24 hrs by MTT assay relative to control; type: functional, Homo sapiens
[13] = system: SH-SY5Y; assay: Inhibition of 2 mM paraquat-induced cell death in SH-SY5Y cells assessed as increase in cell viability at 30 ug/mL after 24 hrs by MTT assay relative to control; type: functional, Homo sapiens
[14] = system: SH-SY5Y; assay: Reduction of nitric oxide-induced intracellular calcium level in SH-SY5Y cells; type: functional, cell-based; settings: Homo sapiens
[15] = target: T2, Caspase-3 (Homo sapiens); assay: Decrease in paraquat-induced caspase-3 activity in SH-SY5Y cells; type: cell-based
[16] = system: SH-SY5Y; assay: Effect on sodium nitroprusside-induced intracellular calcium level in SH-SY5Y cells after 25 hrs relative to control; type: functional, Homo sapiens
[17] = system: SH-SY5Y; assay: Reduction of sodium nitroprusside-induced nitric oxide production in SH-SY5Y cells; type: functional, cell-based; settings: Homo sapiens
[18] = system: SH-SY5Y; assay: Inhibition of 2 mM paraquat-induced cell death in SH-SY5Y cells assessed as increase in cell viability at 10 ug/mL after 24 hrs by MTT assay relative to control; type: functional, Homo sapiens
[19] = system: SH-SY5Y; assay: Inhibition of 2 mM paraquat-induced cell death in SH-SY5Y cells assessed as increase in cell viability at 20 ug/mL after 24 hrs by MTT assay relative to control; type: functional, Homo sapiens
[20] = system: SH-SY5Y; assay: Reduction of sodium nitroprusside-induced cell death in SH-SY5Y cells assessed as subG1 DNA content relative to control; type: functional, cell-based; settings: Homo sapiens
[21] = system: SH-SY5Y; assay: Reduction on sodium nitroprusside-induced ROS production in SH-SY5Y cells; type: functional, Homo sapiens; design: scale not given: the % may be the effect or the level left
[22] = system: SH-SY5Y; assay: Effect on 3 mM sodium nitroprusside-induced mitochondrial transmembrane potential level in SH-SY5Y cells after 24 hrs; type: functional, Homo sapiens
[23] = system: SH-SY5Y; assay: Reduction of paraquat-induced cell death in SH-SY5Y cells assessed as subG1 DNA content relative to control; type: functional, cell-based; settings: Homo sapiens
[24] = system: SH-SY5Y; assay: Effect on 2 mM paraquat-induced intracellular calcium level in SH-SY5Y cells after 24 hrs relative to contro; type: functional, Homo sapiens
[25] = target: T1, Caspase-9 (Homo sapiens); assay: Decrease in sodium nitroprusside-induced caspase 9 activity in SH-SY5Y cells; type: cell-based

SMILES: Oc1ccc([C@H]2Oc3cc(O)cc([C@@H]4[C@H](c5cc(O)cc(O)c5)[C@@H](c5ccc(O)cc5)O[C@H]4c4ccc(O)cc4)c3[C@@H]2c2cc(O)c3c(c2)[C@@H](c2cc(O)cc(O)c2)[C@H](c2ccc(O)cc2)O3)cc1 [KOBOPHENOL A]
- Activity [1]: 103.6%
- Activity [2]: 128.3%
- Activity [3]: 91.4%
- Activity [4]: 109.8%
- Activity [5]: 99.1%
- Activity [6]: Dose-dependent effect
- Activity [7]: 105.7%
- Activity [8]: Dose-dependent effect
- Activity [9]: 96.1%
- Activity [10]: 88.1%
- Activity [11]: 78.7%
- Activity [12]: 108.6%
- Activity [13]: 102.5%
- Activity [14]: Active
- Activity [15]: Active
- Activity [16]: 96.1%
- Activity [17]: inactive
- Activity [18]: 66.3%
- Activity [19]: 85.6%
- Activity [20]: Active
- Activity [21]: 103.4%
- Activity [22]: 119.3%
- Activity [23]: Active
- Activity [24]: 98.3%
- Activity [25]: Dose-dependent effect
